Results from patent US6774142B2, “Inhibition by 3-deoxyflavonoids of T-lymphocyte activation and therapies related thereto” (priority 2001, dated 2004).
Values belong to the compound of their own block, whether it stands above or below them.

Legend:
[1] = molecular target: Kv1.3 channel (Homo sapiens, UniProt P22001); test: Inhibition of the Kv1.3 channel, patch clamp method; format: cell-based
From the text: Furthermore, the invention deals with ion channels that constitute a set of molecular targets through which these 3-deoxyflavonoids exert their biological effects. The flavonoid compounds of this invention can lower and stabilize blood glucose levels in Type-I and Type-II diabetics, and can also ameliorate symptoms of lupus erythematosus, an autoimmune disease affecting several organs. Type-I diabetes is an autoimmune disease in which autoreactive lymphocytes destroy pancreatic P-cells, while the etiology of Type-II diabetes is due to inadequate insulin production and decreased ability of insulin to affect its target end-organs. Since ion channels play a critical role in lymphocytes and in pancreatic β-cell signaling, it is most likely that at least some of the therapeutic effects of flavonoids may arise through blockade of ion channels. […] The non-toxic nature of these flavonoids in humans makes them attractive as nutraceuticals that could complement or replace existing medications and therapies. Inhibition of the Kv1.3 channel was performed utilizing the patch clamp method desctribed by […]. Biol. Chem. 276: 12249.

[2] = test system: cytotoxic T lymphocyte line CTL264; test: CTL cytotoxicity against 264 peptide-pulsed T2 target cells (calcein release); format: cell-based; settings: for inhibition of calcein release: FIG. 3
Experimental: A cytotoxic T lymphocyte line (CTL—designated CTL264) specific for a peptide antigen (aa 264-272, referred to as the 264 peptide) derived from the tumor suppressor protein p53 was used as a […] to test if luteolin had any effect on CTL cytotoxicity against 264 peptide-pulsed T2 target cells. T2 target cells were pulsed with 264 peptide for 2 hours and labeled with Calcein-AM for 30 minutes and washed three times. Mixtures of T2 cells and CTL264 were incubated for 4 hours. 100 μL supernatants were transferred to a 96-well flat-bottom microtiter plates to read fluorescence (538 nm) to measure calcein release due to cell lysis.
The spontaneous calcein release in cytotoxic T Lymphocytes was determined by incubation of targets in RPMI-10. The maximal calcein release was determined by incubation of targets in Triton X-100. Data are reported as the mean of triplicate determinations.

[3] = test system: chronic Type I (BBWor) diabetic rats; test: Blood glucose in chronic Type I (BBWor) diabetic rats; format: in vivo, rat; settings: for blood glucose after treatment: 6 hours; for blood glucose before treatment: time 0; for decrease in blood glucose levels: within 6 hours of a single treatment (luteolin 3 mg intragastrically; PZI insulin subcutaneous)
Experimental: The effect of Luteolin treatment in chronic Type I (BBWor) diabetic rats was examined. In this study, lean male diabetic rats were randomly assigned to 3 treatment groups (3-4 rats/group). Each group received either: (1) 3 mg dose of luteolin intragastrically; (2) a subcutaneous injection of PZI insulin (0.9-1.2 mU/day); or (3) no treatment. Blood glucose was evaluated from time 0 through 6 hours. The data was expressed as average blood glucose relative to time post treatment.

[4] = test system: chronic Type 2 diabetic rats; test: Blood glucose in chronic Type 2 diabetic rats, 24 hr dose study; format: in vivo, rat
Experimental: Luteolin was also evaluated for its effect to reduce hyperglycemia in chronic Type 2 diabetic rats. In this study, the dose and frequency of Luteolin treatment was increased to compensate for the enhanced metabolism of the obese rat. First, a 24 hour baseline study was performed on 9 chronic Type 2 rats. […] These same rats were randomly assigned to 3 groups and given 50, 150 and 250 mg doses of Luteolin at three times during the 24 hr period (11 AM, 2 PM and 8 PM). Blood glucose analysis was evaluated every 2 hours.

[5] = test system: obese Type II (BBZDR) diabetic rats; test: Blood glucose in Type II BBZDR rats, two weeks of treatment; format: in vivo, rat
Experimental: In this example, the dose of luteolin was standardized to 50 mg three times per day in the same group of Type II BBZDR rats from Example 5 over an extended period of treatment of two weeks. […] The data was expressed for each rat as a percentage change in blood glucose level relative to each individual pre-treatment level.

[6] = cited from earlier work
[7] = 50 mg three times per day for two weeks
[8] = fried onions, equivalent to 64 mg quercetin aglycone

Kv1.3 channel, sequence (P22001 whole entry): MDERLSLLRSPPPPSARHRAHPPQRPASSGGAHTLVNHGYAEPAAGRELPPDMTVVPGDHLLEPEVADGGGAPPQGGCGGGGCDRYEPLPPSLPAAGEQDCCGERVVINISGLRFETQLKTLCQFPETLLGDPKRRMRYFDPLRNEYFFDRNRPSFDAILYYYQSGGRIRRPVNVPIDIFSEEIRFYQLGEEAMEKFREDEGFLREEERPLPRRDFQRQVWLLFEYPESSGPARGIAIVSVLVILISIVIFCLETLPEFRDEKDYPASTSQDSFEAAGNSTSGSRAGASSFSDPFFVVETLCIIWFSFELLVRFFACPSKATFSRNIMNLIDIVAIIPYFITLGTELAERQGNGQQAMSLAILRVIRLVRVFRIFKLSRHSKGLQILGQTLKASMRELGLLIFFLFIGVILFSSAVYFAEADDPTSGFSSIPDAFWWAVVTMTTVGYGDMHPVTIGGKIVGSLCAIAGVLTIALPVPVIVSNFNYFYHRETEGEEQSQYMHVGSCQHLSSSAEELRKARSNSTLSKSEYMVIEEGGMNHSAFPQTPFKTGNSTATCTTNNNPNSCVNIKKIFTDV

block of Kv1.3 channel current vs. control ([1]; 20 uM concentration): approximately 25% | block of Kv1.3 channel current vs. control ([1]; 100 uM concentration): 100%
Compound: O=c1cc(-c2ccc(O)c(O)c2)oc2cc(O)cc(O)c12 [luteolin, 3′,4′,5,7-tetrahydroxyflavone]
inhibition of CTL cytotoxicity against 264-pulsed T2 target cells ([2]; 4 hours incubation, FIG. 2): significantly inhibited | inhibition of calcein release [2]: inhibition of calcein release | blood glucose after treatment [3]: 307 mg/dL | blood glucose before treatment [3]: 445 mg/dL | decrease in blood glucose levels [3]: 31% | decrease in blood glucose levels ([4]; 50 mg three times a day (150 mg total), within 24 hr): 10.2% | drop in blood glucose ([4]; 150 mg three times (450 mg total), 24 hr): 22.9% | decrease in glucose ([4]; 250 mg three times (750 mg total), 24 hr): 27.7% | blood glucose after treatment, one rat ([4]; intermediate dose, one rat, 18 hr): 372 mg/dL | blood glucose before treatment, one rat ([4]; intermediate dose, one rat, start): 777 mg/dL | reduction of blood glucose, one rat ([4]; intermediate dose, one rat, within 18 hr): 52% | reduction of hyperglycemia over all doses ([4]; over a 24 hour period, 50-250 mg doses): 10-28% | average blood glucose after treatment [5, 7]: 389 mg/dL | average drop in blood glucose levels [5, 7]: 41.1% | average blood glucose pre-treatment ([5]; before treatment): 660 mg/dL | increase in blood glucose, rat #3 ([5]; rat #3 with esophagial fistula, two weeks): 9.3%

Compound: O=c1c(O)c(-c2ccc(O)c(O)c2)oc2cc(O)cc(O)c12 [quercetin]
distribution phase half-life [6, 8]: 3.8 h | elimination phase half-life [6, 8]: 16.8 h | time of peak plasma levels [6, 8]: 2.9 h | human absorption ([6]; oral): 24%

Compound: O=c1cc(-c2cc(O)c(O)c(O)c2)oc2cc(O)cc(O)c12 [tricetin]
inhibition of calcein release [2]: inhibition of calcein release

Compound: insulin [reference compound]
blood glucose after treatment [3]: 112 mg/dL | blood glucose before treatment [3]: 415 mg/dL | decrease in blood glucose levels [3]: 75%
